Data from patent US20210040089A1, “KRAS MUTANT PROTEIN INHIBITORS” (Jacobio Pharmaceuticals Co., Ltd., priority 2019, published 2021).

Assays:
KRAS G12C = target: T1, KRAS G12C (Homo sapiens, UniProt P01116, G12C); assay: SOS1 catalyzed nucleotide exchange assay (TR-FRET); format: biochemical; conditions: GDP-loaded HIS-KRAS(G12C), 1 hour pre-incubation with compound
T1 construct: HIS-KRAS (G12C, aa 2-185, Sino biological); purchased Sino biological
How it was run: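 EDTA-stripped, GDP-loaded His-KRAS G12C (aa 2-185; 3 nM final) preincubated 1 h with compound, then SOS1 ExD (aa 564-1049; 2 μM) and BODIPY-FL GTP (80 nM) added for 4 h at 25 °C. TR-FRET via anti-His Tb cryptate (515/486 nm ratio); IC50 from 4-parameter logistic fit.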

[1] = test system: Phospho-ERK1/2(THR202/TYR204) in NCI-H358 cells express KRAS G12C; assay: Phospho-ERK1/2(THR202/TYR204) HTRF assay; format: cell-based; conditions: Homo sapiens; NCI-H358, 2 hours incubation; read-out: p-ERK inhibition in NCI-H358 IC50
How it was run: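 Compounds applied to attached cells for 2 h at 37 °C in RPMI 1640 with 0.1% FBS. Lysate phospho-ERK1/2 detected by HTRF after 4 h antibody incubation at 25 °C; IC50 from 4-parameter logistic fit.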

[2] = test system: NCI-H358 cells express KRAS G12C; assay: Cell growth inhibition assay (CCK-8); format: cell-based; conditions: Homo sapiens, 144 h; NCI-H358, 6 days incubation
How it was run: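 Antiproliferative read-out: KRAS G12C-mutant NCI-H358 lung cancer cells (3000/well) exposed to compounds in RPMI 1640 with 10% FBS for 6 days at 37°C. Viability by CCK-8 (OD450) after 1.5-2 h; IC50 from 4-parameter logistic fit.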

T1 sequence (P01116 2-185 isoform P01116-2 G12C): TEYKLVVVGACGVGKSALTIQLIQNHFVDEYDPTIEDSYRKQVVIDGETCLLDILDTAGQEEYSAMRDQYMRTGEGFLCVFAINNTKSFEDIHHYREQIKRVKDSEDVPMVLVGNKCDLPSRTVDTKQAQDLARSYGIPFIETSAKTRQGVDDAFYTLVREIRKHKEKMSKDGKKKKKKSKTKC

| Structure (SMILES) | IC50 (KRAS G12C) [nM] | IC50 [1] [nM] | IC50 [2] [nM] |
| --- | --- | --- | --- |
| C=CC(=O)N1CCN(c2nc(OCC3(CN4CCC4)CC3)nc3c2CCN(c2cccc(Cl)c2C(F)(F)F)C3)CC1CC#N (stereo not drawn) [Compound 39, 2-(1-acryloyl-4-(2-((1-(azetidin-1-ylmethyl)cyclopropyl)methoxy)-7-(3-chloro-2-(trifluoromethyl)phenyl)-5,6,7,8-tetrahydropyrido[3,4-d]pyrimidin-4-yl)piperazin-2-yl)acetonitrile] | 7.28 | 79.6 | 104 |
| C=CC(=O)N1CCN(c2nc(OCC3(CN4CCCC4)CC3)nc3c2CCN(c2cccc4cccc(Cl)c24)C3)CC1CC#N (stereo not drawn) [Compound 61, 2-(1-acryloyl-4-(7-(8-chloronaphthalen-1-yl)-2-((1-(pyrrolidin-1-ylmethyl)cyclopropyl)methoxy)-5,6,7,8-tetrahydropyrido[3,4-d]pyrimidin-4-yl)piperazin-2-yl)acetonitrile] | 1.44 | 16.2 | 25.1 |
| C=CC(=O)N1CCN(c2nc(OCC3(CN4CCN(C)CC4)CC3)nc3c2CCN(c2cccc4cccc(C)c24)C3)CC1CC#N (stereo not drawn) [Compound 58, 2-(1-acryloyl-4-(7-(8-methylnaphthalen-1-yl)-2-((1-((4-methylpiperazin-1-yl)methyl)cyclopropyl)methoxy)-5,6,7,8-tetrahydropyrido[3,4-d]pyrimidin-4-yl)piperazin-2-yl)acetonitrile] | 1.47 | 44.3 | 36.9 |
| C=CC(=O)N1CCN(c2nc(OCC3(CN4CCN(C(C)=O)CC4)CC3)nc3c2CCN(c2cccc4cccc(C)c24)C3)CC1CC#N (stereo not drawn) [Compound 66, 2-(4-(2-((1-((4-acetylpiperazin-1-yl)methyl)cyclopropyl)methoxy)-7-(8-methylnaphthalen-1-yl)-5,6,7,8-tetrahydropyrido[3,4-d]pyrimidin-4-yl)-1-acryloylpiperazin-2-yl)acetonitrile] | 1.46 | 13.6 | 25.1 |
| Cc1cccc2cccc(N3CCc4c(nc(OCC5(CN6CCCC6)CC5)nc4N4CCN(C(=O)/C=C/CN(C)C)C(CC#N)C4)C3)c12 (stereo not drawn) [Compound 86, (E)-2-(1-(4-(dimethylamino)but-2-enoyl)-4-(7-(8-methylnaphthalen-1-yl)-2-((1-(pyrrolidin-1-ylmethyl)cyclopropyl)methoxy)-5,6,7,8-tetrahydropyrido[3,4-d]pyrimidin-4-yl)piperazin-2-yl)acetonitrile] | > 500 | 131 | 103 |
| C=CC(=O)N1CCN(c2nc(OCC3(CN(C)C)CC3)nc3c2CCN(c2cccc4ccccc24)C3)CC1CC#N (stereo not drawn) [Compound 37, 2-(1-acryloyl-4-(2-((1-((dimethylamino)methyl)cyclopropyl)methoxy)-7-(naphthalen-1-yl)-5,6,7,8-tetrahydropyrido[3,4-d]pyrimidin-4-yl)piperazin-2-yl)acetonitrile] | 6.75 | 81.6 | 85.5 |
| C=CC(=O)N1CCN(c2nc(OCC3(CN4CC[C@@H](F)C4)CC3)nc3c2CCN(c2cccc4cccc(C)c24)C3)CC1CC#N (stereo partly drawn) [Compound 49, 2-(1-acryloyl-4-(2-((1-(((R)-3-fluoropyrrolidin-1-yl)methyl)cyclopropyl)methoxy)-7-(8-methylnaphthalen-1-yl)-5,6,7,8-tetrahydropyrido[3,4-d]pyrimidin-4-yl)piperazin-2-yl)acetonitrile] | 3.12 | 38.4 | 64.2 |
| C=CC(=O)N1CCN(c2nc(OCC3(CN(C)C)CC3)nc3c2CCN(c2c(C)ccc4[nH]ncc24)C3)CC1CC#N (stereo not drawn) [Compound 3, 2-(1-acryloyl-4-(2-((1-((dimethylamino)methyl)cyclopropyl)methoxy)-7-(5-methyl-1H-indazol-4-yl)-5,6,7,8-tetrahydropyrido[3,4-d]pyrimidin-4-yl)piperazin-2-yl)acetonitrile] | 12.1 | 453 | 408 |
| C=CC(=O)N1CCN(c2nc(OCC3CCCC3N(C)C)nc3c2CCN(c2cccc(Cl)c2Cl)C3)CC1CC#N (stereo not drawn) [Compound 25, 2-(1-acryloyl-4-(7-(2,3-dichlorophenyl)-2-((2-(dimethylamino)cyclopentyl)methoxy)-5,6,7,8-tetrahydropyrido[3,4-d]pyrimidin-4-yl)piperazin-2-yl)acetonitrile] | 30.2 | 267 | 164 |
| C=CC(=O)N1CCN(c2nc(OCC3(N(C)C)CC3)nc3c2CCN(c2cccc4cccc(C)c24)C3)CC1CC#N (stereo not drawn) [Compound 20, 2-(1-acryloyl-4-(2-((1-(dimethylamino)cyclopropyl)methoxy)-7-(8-methylnaphthalen-1-yl)-5,6,7,8-tetrahydropyrido[3,4-d]pyrimidin-4-yl)piperazin-2-yl)acetonitrile] | 19.4 | 127 | 102 |
| C=CC(=O)N1CCN(c2nc(OCC3CCCC3N(C)C)nc3c2CCN(c2cccc(F)c2C(F)(F)F)C3)CC1CC#N (stereo not drawn) [Compound 26, 2-(1-acryloyl-4-(2-((2-(dimethylamino)cyclopentyl)methoxy)-7-(3-fluoro-2-(trifluoromethyl)phenyl)-5,6,7,8-tetrahydropyrido[3,4-d]pyrimidin-4-yl)piperazin-2-yl)acetonitrile] | 33.7 | 231 | 154 |
| C=CC(=O)N1CCN(c2nc(OCC3CC(N(C)C)C3)nc3c2CCN(c2cccc4ccccc24)C3)CC1CC#N (stereo not drawn) [Compound 8, 2-(1-acryloyl-4-(2-((3-(dimethylamino)cyclobutyl)methoxy)-7-(naphthalen-1-yl)-5,6,7,8-tetrahydropyrido[3,4-d]pyrimidin-4-yl)piperazin-2-yl)acetonitrile] | 408 | 769 | 3470 |
| C=C(F)C(=O)N1CCN(c2nc(OCC3(CN4CC(N(C)C)C4)CC3)nc3c2CCN(c2cccc4cccc(C)c24)C3)CC1CC#N (stereo not drawn) [Compound 75, 2-(4-(2-((1-((3-(dimethylamino)azetidin-1-yl)methyl)cyclopropyl)methoxy)-7-(8-methylnaphthalen-1-yl)-5,6,7,8-tetrahydropyrido[3,4-d]pyrimidin-4-yl)-1-(2-fluoroacryloyl)piperazin-2-yl)acetonitrile] | 7.27 | 405 | 235 |
| C=CC(=O)N1CCN(c2nc(OC[C@@H]3CC[C@H](N(C)C)C3)nc3c2CCN(c2cccc4cccc(C)c24)C3)CC1CC#N (stereo partly drawn) [Compound 22, 2-(1-acryloyl-4-(2-(((1R,3S)-3-(dimethylamino)cyclopentyl)methoxy)-7-(8-methylnaphthalen-1-yl)-5,6,7,8-tetrahydropyrido[3,4-d]pyrimidin-4-yl)piperazin-2-yl)acetonitrile] | 10.7 | 96.6 | 65.2 |
| C=CC(=O)N1CCN(c2nc(OCC3(CN4CC(N(C)C)C4)CC3)nc3c2CCN(c2cccc4cccc(C)c24)C3)CC1CC#N (stereo not drawn) [Compound 59, 2-(1-acryloyl-4-(2-((1-((3-(dimethylamino)azetidin-1-yl)methyl)cyclopropyl)methoxy)-7-(8-methylnaphthalen-1-yl)-5,6,7,8-tetrahydropyrido[3,4-d]pyrimidin-4-yl)piperazin-2-yl)acetonitrile] | 1.1 | 57.2 | 61.9 |
